Data taken from patent US20250387358A1 (SpringWorks Therapeutics, Inc., priority 2024, published 2025).

Test system: NF1-associated plexiform neurofibromas (PNs)
Test: Phase 2b trial, efficacy by BICR volumetric MRI per REiNS criteria
Type: in vivo, human
Details: observed time
Method: Participants were screened (assessed for eligibility as described below). […] The median age was 34.5 years (range 18 to 69 years); 85% were white and 64% were female. […] The most commonly reported morbidities were pain (90%) and disfigurement or major deformity (52%).
The median age was 10 years (range 2 to 17 years); 66% were white and 54% were female. […] The most commonly reported morbidities were pain (70%) and disfigurement or major deformity (50%).
Study treatment was administered orally at a twice daily (BID) dose specified in the table below. Dosing was on a 28-day Cycle (4-week course) with a 3 week on/1 week off schedule. The treatment period will last for up to 24 Cycles followed by a 30-day Safety Follow-Up period.
A partial response was defined as PN decrease ≥20% compared to baseline using centrally read MRI volumetric analysis.
The major efficacy outcome measure was confirmed objective response rate (ORR), defined as the percentage of patients with complete response (disappearance of the target PN) or confirmed partial response (≥20% reduction in PN volume confirmed at a subsequent tumor assessment within 2-6 months during the 24-cycle treatment phase). Responses were assessed by blinded independent central review (BICR) using volumetric magnetic resonance imaging (MRI) analysis per Response Evaluation in Neurofibromatosis and Schwannomatosis (REINS) criteria. A secondary efficacy objective was to determine the duration of response for patients who achieved a confirmed objective response.

[1] = Pediatric, first DoR line (r12)
[2] = Pediatric, second DoR line (r13)

O=C(NOC[C@H](O)CO)c1ccc(F)c(F)c1Nc1ccc(I)cc1F (single isomer, unassigned) [mirdametinib]
DoR ≥12 months, % of responders (Adult, first DoR line (r12)): (88%) | DoR ≥12 months, number of responders (Adult, first DoR line (r12)): 21 | DoR ≥12 months, % of responders (Adult, second DoR line (r13)): (48%) | DoR ≥12 months, number of responders (Adult, second DoR line (r13)): 14 | DoR ≥12 months, % of responders [1]: (90%) | DoR ≥12 months, number of responders [1]: 26 | DoR ≥12 months, % of responders [2]: (66%) | DoR ≥12 months, number of responders [2]: 19
